PMC9133015 (Nature Communications, 2022)
Where “and” joins values, the source holds several entries; their conditions need not be identical. Equal entries are not always repeated. Where two headings read alike, the source gives them in different places.

Tests used:
Test in all cases: Kinase inhibitor specificity profiling (Reaction Biology Corporation)
Type in all cases: biochemical
Parameters in all cases: % Enzyme Activity (relative to DMSO controls): concentration or dose not given beside the values
[1] = target: T1, panel of 370 protein kinases (Homo sapiens, UniProt Q5S007); settings: 2 h, kinase LRRK2; read-out: % Enzyme Activity (relative to DMSO controls)
T1 construct: purchased Reaction Biology Corporation (assay service)

[2] = target: T2, panel of 370 protein kinases (Homo sapiens, UniProt Q02763); settings: 2 h, kinase TIE2/TEK; read-out: % Enzyme Activity (relative to DMSO controls)
T2 construct: purchased Reaction Biology Corporation (assay service)

[3] = target: T3, panel of 370 protein kinases (Homo sapiens, UniProt O43353); settings: 2 h, kinase RIPK2; read-out: % Enzyme Activity (relative to DMSO controls)
T3 construct: purchased Reaction Biology Corporation (assay service)

[4] = target: T4, panel of 370 protein kinases (Homo sapiens, UniProt P36897); settings: 2 h, kinase ALK5/TGFBR1; read-out: % Enzyme Activity (relative to DMSO controls)
T4 construct: purchased Reaction Biology Corporation (assay service)

[5] = target: T5, panel of 370 protein kinases (Homo sapiens, UniProt P51956); settings: 2 h, kinase NEK3; read-out: % Enzyme Activity (relative to DMSO controls)
T5 construct: purchased Reaction Biology Corporation (assay service)

[6] = target: T6, panel of 370 protein kinases (Homo sapiens, UniProt P35916); settings: 2 h, kinase FLT4/VEGFR3; read-out: % Enzyme Activity (relative to DMSO controls)
T6 construct: purchased Reaction Biology Corporation (assay service)

[7] = target: T7, panel of 370 protein kinases (Homo sapiens, UniProt Q9Y6M4); settings: kinase CK1G3
T7 construct: purchased Reaction Biology Corporation (assay service)
T7 sequence (Q9Y6M4 whole entry): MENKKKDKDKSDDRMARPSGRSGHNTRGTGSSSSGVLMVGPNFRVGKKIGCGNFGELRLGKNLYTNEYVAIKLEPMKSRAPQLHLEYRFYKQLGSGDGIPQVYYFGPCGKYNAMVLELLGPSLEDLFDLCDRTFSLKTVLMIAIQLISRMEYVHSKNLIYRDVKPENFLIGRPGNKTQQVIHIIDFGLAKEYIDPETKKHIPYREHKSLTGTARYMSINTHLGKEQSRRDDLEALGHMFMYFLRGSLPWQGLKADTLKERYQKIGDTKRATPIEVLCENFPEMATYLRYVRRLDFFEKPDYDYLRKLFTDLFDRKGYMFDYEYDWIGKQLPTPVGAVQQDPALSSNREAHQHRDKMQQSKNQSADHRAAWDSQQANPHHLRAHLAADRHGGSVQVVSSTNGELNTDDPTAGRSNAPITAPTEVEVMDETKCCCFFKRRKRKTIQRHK

[8] = target: T8, panel of 370 protein kinases (Homo sapiens, UniProt Q16539); settings: kinase P38a/MAPK14
T8 construct: purchased Reaction Biology Corporation (assay service)
T8 sequence (Q16539 whole entry): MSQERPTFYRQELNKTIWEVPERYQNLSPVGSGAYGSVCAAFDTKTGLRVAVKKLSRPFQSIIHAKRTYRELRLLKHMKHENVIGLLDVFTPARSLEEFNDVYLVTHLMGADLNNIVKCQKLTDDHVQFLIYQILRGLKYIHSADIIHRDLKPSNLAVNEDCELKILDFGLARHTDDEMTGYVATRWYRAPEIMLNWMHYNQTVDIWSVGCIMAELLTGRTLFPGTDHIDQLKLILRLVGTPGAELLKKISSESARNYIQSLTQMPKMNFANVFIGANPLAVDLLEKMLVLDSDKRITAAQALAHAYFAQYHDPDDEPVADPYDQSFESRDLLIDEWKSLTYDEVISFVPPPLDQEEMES

[9] = target: T9, panel of 370 protein kinases (Homo sapiens, UniProt P08631); settings: 2 h, kinase HCK; read-out: % Enzyme Activity (relative to DMSO controls)
T9 construct: purchased Reaction Biology Corporation (assay service)

[10] = target: T10, panel of 370 protein kinases (Homo sapiens, UniProt Q13882); settings: 2 h, kinase BRK; read-out: % Enzyme Activity (relative to DMSO controls)
T10 construct: purchased Reaction Biology Corporation (assay service)
T10 sequence (Q13882 whole entry): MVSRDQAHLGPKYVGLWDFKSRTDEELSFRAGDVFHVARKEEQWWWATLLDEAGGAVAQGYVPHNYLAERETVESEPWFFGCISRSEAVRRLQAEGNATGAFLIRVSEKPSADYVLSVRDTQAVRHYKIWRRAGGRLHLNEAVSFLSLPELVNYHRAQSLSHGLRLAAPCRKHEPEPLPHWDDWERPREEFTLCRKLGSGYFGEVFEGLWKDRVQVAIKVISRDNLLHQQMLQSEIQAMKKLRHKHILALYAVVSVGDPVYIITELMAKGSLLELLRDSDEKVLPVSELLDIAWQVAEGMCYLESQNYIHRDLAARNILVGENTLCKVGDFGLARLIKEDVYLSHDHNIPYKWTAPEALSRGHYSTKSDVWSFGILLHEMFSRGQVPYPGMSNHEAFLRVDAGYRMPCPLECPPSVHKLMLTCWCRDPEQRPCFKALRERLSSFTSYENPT

[11] = target: T11, panel of 370 protein kinases (Homo sapiens, UniProt Q13554); settings: 2 h, kinase CAMK2b; read-out: % Enzyme Activity (relative to DMSO controls)
T11 construct: purchased Reaction Biology Corporation (assay service)

[12] = target: T12, panel of 370 protein kinases (Homo sapiens, UniProt Q9NYL2); settings: 2 h, kinase ZAK/MLTK; read-out: % Enzyme Activity (relative to DMSO controls)
T12 construct: purchased Reaction Biology Corporation (assay service)
T12 sequence (Q9NYL2 whole entry): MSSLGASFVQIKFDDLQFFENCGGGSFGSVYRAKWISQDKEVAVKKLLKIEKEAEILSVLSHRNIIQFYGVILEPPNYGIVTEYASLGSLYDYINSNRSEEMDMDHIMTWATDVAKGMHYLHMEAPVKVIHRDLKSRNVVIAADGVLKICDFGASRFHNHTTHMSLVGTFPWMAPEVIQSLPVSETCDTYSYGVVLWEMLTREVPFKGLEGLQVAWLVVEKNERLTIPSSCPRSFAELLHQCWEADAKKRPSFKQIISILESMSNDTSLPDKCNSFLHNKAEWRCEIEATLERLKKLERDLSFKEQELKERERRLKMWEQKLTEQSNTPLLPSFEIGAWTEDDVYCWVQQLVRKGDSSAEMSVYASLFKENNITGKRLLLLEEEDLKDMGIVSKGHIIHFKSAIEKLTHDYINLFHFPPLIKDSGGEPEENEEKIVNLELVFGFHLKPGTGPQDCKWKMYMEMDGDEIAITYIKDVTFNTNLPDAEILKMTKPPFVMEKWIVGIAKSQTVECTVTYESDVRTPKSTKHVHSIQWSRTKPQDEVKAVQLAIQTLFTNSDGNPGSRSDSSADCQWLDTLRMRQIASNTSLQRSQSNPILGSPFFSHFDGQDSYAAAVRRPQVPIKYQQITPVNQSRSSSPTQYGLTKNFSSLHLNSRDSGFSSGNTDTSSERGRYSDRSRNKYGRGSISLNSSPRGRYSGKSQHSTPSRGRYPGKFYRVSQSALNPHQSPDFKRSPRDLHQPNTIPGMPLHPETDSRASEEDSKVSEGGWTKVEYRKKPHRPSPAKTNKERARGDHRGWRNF

[13] = target: T13, panel of 370 protein kinases (Homo sapiens, UniProt Q9Y2H1); settings: 2 h, kinase STK38L/NDR2; read-out: % Enzyme Activity (relative to DMSO controls)
T13 construct: purchased Reaction Biology Corporation (assay service)

[14] = system: panel of 370 protein kinases
[15] = target: T14, panel of 370 protein kinases (Homo sapiens, UniProt Q15208); settings: 2 h, kinase STK38/NDR1; read-out: % Enzyme Activity (relative to DMSO controls)
T14 construct: purchased Reaction Biology Corporation (assay service)

[16] = target: T15, panel of 370 protein kinases (Homo sapiens, UniProt Q9UBE8); settings: 2 h, kinase NLK; read-out: % Enzyme Activity (relative to DMSO controls)
T15 construct: purchased Reaction Biology Corporation (assay service)

[17] = target: T16, panel of 370 protein kinases (Homo sapiens, UniProt Q00535); settings: 2 h, read-out: % Enzyme Activity (relative to DMSO controls)
T16 construct: purchased Reaction Biology Corporation (assay service)
T16 sequence (Q00535 whole entry): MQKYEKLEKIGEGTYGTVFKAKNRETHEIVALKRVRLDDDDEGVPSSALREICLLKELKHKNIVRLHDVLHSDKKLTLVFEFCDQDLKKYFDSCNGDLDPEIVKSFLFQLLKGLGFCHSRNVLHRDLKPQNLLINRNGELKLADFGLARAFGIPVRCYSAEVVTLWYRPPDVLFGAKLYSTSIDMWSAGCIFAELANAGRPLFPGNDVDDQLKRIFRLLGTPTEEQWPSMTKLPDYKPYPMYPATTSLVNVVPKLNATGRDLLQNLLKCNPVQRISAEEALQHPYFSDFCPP

[18] = target: T17, panel of 370 protein kinases (Homo sapiens, UniProt P08581); settings: kinase c-MET
T17 construct: purchased Reaction Biology Corporation (assay service)
T17 sequence (P08581 25-1390): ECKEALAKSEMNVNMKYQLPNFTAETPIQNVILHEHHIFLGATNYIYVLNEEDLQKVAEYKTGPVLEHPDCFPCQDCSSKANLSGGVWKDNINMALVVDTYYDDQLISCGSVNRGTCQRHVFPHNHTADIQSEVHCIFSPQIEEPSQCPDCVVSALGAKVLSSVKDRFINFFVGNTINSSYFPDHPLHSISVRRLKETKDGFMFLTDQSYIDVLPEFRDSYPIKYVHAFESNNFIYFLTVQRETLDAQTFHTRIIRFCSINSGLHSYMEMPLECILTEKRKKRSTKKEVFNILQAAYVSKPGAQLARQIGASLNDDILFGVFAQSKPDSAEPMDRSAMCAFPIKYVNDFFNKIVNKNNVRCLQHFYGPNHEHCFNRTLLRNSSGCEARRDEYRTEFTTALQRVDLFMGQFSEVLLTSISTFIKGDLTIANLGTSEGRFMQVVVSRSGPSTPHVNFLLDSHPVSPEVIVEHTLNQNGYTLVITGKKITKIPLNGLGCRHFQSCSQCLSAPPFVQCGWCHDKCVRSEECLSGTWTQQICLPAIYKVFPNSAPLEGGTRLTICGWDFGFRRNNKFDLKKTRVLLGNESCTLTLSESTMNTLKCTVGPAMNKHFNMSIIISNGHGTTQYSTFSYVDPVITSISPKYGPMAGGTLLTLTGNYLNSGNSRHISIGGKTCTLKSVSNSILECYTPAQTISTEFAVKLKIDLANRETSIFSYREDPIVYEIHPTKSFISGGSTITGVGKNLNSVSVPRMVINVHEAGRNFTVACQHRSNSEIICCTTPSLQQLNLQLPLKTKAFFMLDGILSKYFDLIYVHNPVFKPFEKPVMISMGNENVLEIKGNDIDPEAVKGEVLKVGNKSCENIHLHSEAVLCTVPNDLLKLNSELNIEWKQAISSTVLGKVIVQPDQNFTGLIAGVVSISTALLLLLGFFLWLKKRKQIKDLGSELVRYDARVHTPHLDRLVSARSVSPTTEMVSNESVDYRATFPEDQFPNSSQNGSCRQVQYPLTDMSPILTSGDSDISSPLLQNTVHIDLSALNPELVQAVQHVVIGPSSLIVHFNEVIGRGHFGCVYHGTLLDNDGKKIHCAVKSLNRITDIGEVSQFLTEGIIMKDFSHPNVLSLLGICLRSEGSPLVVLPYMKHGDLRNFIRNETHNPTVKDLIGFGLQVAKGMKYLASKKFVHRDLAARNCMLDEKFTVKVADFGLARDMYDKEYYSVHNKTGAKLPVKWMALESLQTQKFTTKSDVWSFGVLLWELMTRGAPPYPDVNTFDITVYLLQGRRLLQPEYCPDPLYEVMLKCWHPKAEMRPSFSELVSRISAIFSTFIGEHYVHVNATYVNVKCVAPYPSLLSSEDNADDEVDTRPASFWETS

[19] = target: T18, panel of 370 protein kinases (Homo sapiens, UniProt P42680); settings: 2 h, kinase TEC; read-out: % Enzyme Activity (relative to DMSO controls)
T18 construct: purchased Reaction Biology Corporation (assay service)
T18 sequence (P42680 whole entry): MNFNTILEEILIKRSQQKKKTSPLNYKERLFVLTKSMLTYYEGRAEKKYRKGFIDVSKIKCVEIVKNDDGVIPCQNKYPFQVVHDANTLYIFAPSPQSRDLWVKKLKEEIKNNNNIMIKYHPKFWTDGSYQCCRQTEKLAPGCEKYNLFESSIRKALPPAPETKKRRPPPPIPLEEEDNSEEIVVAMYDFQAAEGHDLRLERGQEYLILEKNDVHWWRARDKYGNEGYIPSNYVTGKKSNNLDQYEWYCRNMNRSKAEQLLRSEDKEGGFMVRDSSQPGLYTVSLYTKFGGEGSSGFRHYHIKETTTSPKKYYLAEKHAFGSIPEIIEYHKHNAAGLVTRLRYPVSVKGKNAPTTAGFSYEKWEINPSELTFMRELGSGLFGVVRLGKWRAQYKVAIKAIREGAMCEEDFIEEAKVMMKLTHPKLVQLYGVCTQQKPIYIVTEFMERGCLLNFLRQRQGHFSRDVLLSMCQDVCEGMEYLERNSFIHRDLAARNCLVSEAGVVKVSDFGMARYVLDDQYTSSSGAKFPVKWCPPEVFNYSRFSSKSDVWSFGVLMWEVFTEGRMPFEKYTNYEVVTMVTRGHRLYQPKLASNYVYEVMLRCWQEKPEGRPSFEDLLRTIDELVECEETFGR

[20] = target: T19, panel of 370 protein kinases (Homo sapiens, UniProt P52333); settings: 2 h, kinase JAK3; read-out: % Enzyme Activity (relative to DMSO controls)
T19 construct: purchased Reaction Biology Corporation (assay service)

[21] = target: T20, panel of 370 protein kinases (Homo sapiens, UniProt Q09013); settings: 2 h, kinase DMPK; read-out: % Enzyme Activity (relative to DMSO controls)
T20 construct: purchased Reaction Biology Corporation (assay service)
T20 sequence (Q09013 whole entry): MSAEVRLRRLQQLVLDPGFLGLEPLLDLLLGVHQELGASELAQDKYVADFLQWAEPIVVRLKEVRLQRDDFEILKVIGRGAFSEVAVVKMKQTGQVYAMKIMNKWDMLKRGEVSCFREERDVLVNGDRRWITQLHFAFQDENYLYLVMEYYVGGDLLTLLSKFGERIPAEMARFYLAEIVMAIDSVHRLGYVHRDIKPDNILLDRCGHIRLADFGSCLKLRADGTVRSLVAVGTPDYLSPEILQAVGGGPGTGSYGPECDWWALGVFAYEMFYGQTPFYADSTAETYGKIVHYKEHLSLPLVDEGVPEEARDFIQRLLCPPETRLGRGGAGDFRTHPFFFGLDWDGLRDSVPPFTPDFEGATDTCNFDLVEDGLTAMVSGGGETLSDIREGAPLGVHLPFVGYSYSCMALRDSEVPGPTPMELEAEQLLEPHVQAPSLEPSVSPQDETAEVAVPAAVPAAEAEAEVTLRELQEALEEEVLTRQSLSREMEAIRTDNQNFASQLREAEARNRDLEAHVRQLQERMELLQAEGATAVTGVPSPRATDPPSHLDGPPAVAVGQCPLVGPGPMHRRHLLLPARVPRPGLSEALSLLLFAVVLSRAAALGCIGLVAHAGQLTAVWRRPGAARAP

CCN1CCN(C(=O)c2ccc(Nc3ncc(F)c(-c4ccc5nc(N(C)C)sc5c4)n3)nc2)CC1 [YK-2-69] was tested, and the remaining activity at 1 µM [1] was 72%, the remaining activity at 1 µM [2] was 87.6% and the remaining activity at 1 µM [3] was 48.3%. For the same compound, the remaining activity at 1 µM [4] was 115%, the remaining activity at 1 µM [5] was 73.1% and the remaining activity at 1 µM [6] was 75.2%. The “% Enzyme Activity (relative to DMSO controls)” value [7] was 114.34% and 110.21%, the “% Enzyme Activity (relative to DMSO controls)” value [8] was 99.00% and 95.59% and the remaining activity at 1 µM [9] was 105%. The remaining activity at 1 µM [10] was 97.7%, the remaining activity at 1 µM [11] was 78.5% and the remaining activity at 1 µM [12] was 107%. For the same compound, the remaining activity at 1 µM [13] was 95.4%, the “kinase selectivity against 370 kinases” value ([14]; 1 µM) was “selectivity over 360+ kinases” and the “% Enzyme Activity (relative to DMSO controls)” value ([14]; kinase LYN B) was 102.77% and 100.49%. The “% Enzyme Activity (relative to DMSO controls)” value ([14]; kinase PKCb2) was 92.22% and 91.87%, the “% Enzyme Activity (relative to DMSO controls)” value ([14]; kinase PKG1b) was 114.44% and 107.54% and the remaining activity at 1 µM [15] was 85.5%. It also gave a remaining activity at 1 µM [16] of 97%, a remaining activity at 1 µM ([17]; kinase CDK5/P25) of 92.2% and a remaining activity at 1 µM ([17]; kinase CDK5/p35) of 90%. The “% Enzyme Activity (relative to DMSO controls)” value [18] was 79.77% and 77.94%, the remaining activity at 1 µM [19] was 107% and the remaining activity at 1 µM [20] was 111%. It also gave a remaining activity at 1 µM [21] of 95.8%.
